Results taken from patent US20250082714A1, “METHODS AND COMPOSITIONS FOR THE TREATMENT OR PREVENTION OF MUSCULAR DYSTROPHY” (Stealth BioTherapeutics Inc., priority 2021, published 2025).
Where “and” joins values, the source holds several entries; their conditions need not be identical. Identical values can stand only once. Where a SMILES comes first, the peptide text is derived from it. [ ]: non-standard residue; d: D form. Dmt = Cc1cc(O)cc(C)c1C[C@H](N)C(=O)O

Columns and labels:
[1] = test system: C57BL/10ScSn-Dmdmdx/J (mdx) mice; assay: H&E inflammation analysis of TA muscle sections; type: in vivo, mouse; details: as compared to the mdx vehicle group; PMO 125 mg/kg, MTP-131 5 mg/kg
Method: (§1) Treatment groups. Four-week-old C57BL/10ScSnJ (stock #000476) and C57BL/10ScSn-Dmdmdx/J mice (stock #001801) were sourced from Jackson Laboratory in Bar Harbor, USA and sorted into a total of five treatment groups (Table 1). The C57BL/10ScSnJ (BL10) mice received vehicle #1 (1×PBS) and vehicle #2 (0.9% Saline). Of the C57BL/10ScSn-Dmdmdx/J (mdx) groups, one received vehicle #1(1×PBS) and vehicle #2 (0.9% Saline), the second group was treated with PMO (125 mg/kg) and vehicle #2 (0.9% Saline), the third group was treated with vehicle #1 (1×PSB) and MTP-131 (5 mg/kg), and the final group was treated with both PMO (125 mg/kg) and MTP-131 (5 mg/kg). PMO compound and the respective vehicle (1×PBS) was administered weekly via retro-orbital injection. MTP-131 compound and the vehicle (0.9% saline) were administered daily via intraperitoneal (IP) injection. Treatment was for a total of 7 weeks.
Histological analysis—H&E—Inflammation Analysis. TA muscle (n=8/group) was sectioned at 10 μm (2 sections/slide) and stored at −80° C. until the staining was performed. Slides were stained with Hematoxylin & Eosin (H&E) and were analyzed for percent inflammation. An inflammatory focus (pl. foci) was measured by counting 10 or more inflammatory cells in a single cluster. These foci areas were measured in mm2 and then compared to the tissue's total area, from which a percentage was calculated. […]

dystrophin = assay: Western blot of dystrophin in tibialis anterior (TA) muscle of treated mdx mice; type: in vivo, mouse (C57BL/10ScSn-Dmdmdx/J; details: 7 weeks; for % Dystrophin Average: average of treatment group (n=14-15 mdx mice); for % Dystrophin: individual mdx mouse
Method: as §1
Experimental endpoint measures. Upon arrival from Jackson laboratory to the Life Science Research Institute (LSRI) animal facility in Halifax, Canada, 4 week-old BL10 and mdx mice were subjected to a one-week acclimation period to the new facility, after which they were weighed, ear-tagged, and randomized. Once randomized, the animals were treated daily for 7 weeks. During treatment, mice were visually assessed for health (altered food and water consumption, abnormal breathing, circling, eye/hair matting and any other features of abnormal appearance). All treatment groups followed the experimental design outlined in Table 2. In vitro force measurements and takedowns were performed throughout weeks 6-7. Takedowns were staggered to accommodate the in vitro force schedule. Scheduling was representative of the treatment groups.
Treatment preparation—PMO. The phosphorodiamidate morpholino oligomer (PMO) was sourced from Gene Tools, LLC. The PMO used was mExon 23(+07-18) (5′-[…]-3′) (SEQ ID NO: 1) against the boundary sequences of exon and intron 23 of the mouse dystrophin gene. The PMO was prepared fresh weekly by diluting the compound in 1×PBS to the stock concentration of 100 mg/ml. Any remaining compound was stored at 4° C.
Treatment preparation—MTP-131. MTP-131 dosing formulation was prepared weekly and filtered through a […] polyether sulfone (PES) filter. Because MTP-131 is extremely hygroscopic it was conditioned before use and weighed immediately after. If possible, MTP-131 was weighed in a low moisture environment (<20% RH). Prior to use, MTP-131 was removed from the refrigerator. The un-opened bottle was placed in a low moisture environment (<20% RH) and allowed to equilibrate at room temperature for at least 2 hours. Quickly, an aliquot was weighed for use without returning any un-used standard to the bottle and the bottle was immediately tightly capped. Immediately after use, the inside of the bag was wiped with a paper towel to remove any moisture, and the reference bottle (tightly capped) was placed back into the aluminum bag, re-sealed and placed back in 2-8° C. storage.
Treatment administration—PMO. PMO compound was delivered weekly via retro-orbital intravenous injection using a 28-gauge needle. Mice were gently removed from their cage and anesthetized using 5% isoflurane and maintained with 1.5-2% isoflurane. Once the pedal reflex was absent, the mouse was positioned on its side, and loose skin behind the shoulders and ears pinned back using the thumb and middle finger of the non-dominant hand. The skin surrounding the eye was drawn back using the index finger, allowing the eye to protrude slightly. The needle was inserted carefully at a 30° angle with the bevel away from the eye, lateral to the medial canthus, through the conjunctival membrane. Once in the retro-orbital sinus, the compound was slowly injected (10 μl/5-10 seconds). The needle was then carefully removed to prevent injury and leakage. If more than 20 μl of leakage occurred, the injectable was aspirated back into the syringe and injected again. […]

[2] = PMO 125 mg/kg weekly, MTP-131 5 mg/kg daily
[3] = Run 1, Gel #5, PMO 125 mg/kg weekly retro-orbital, MTP-131 5 mg/kg daily IP
[4] = Run 1, Gel #6, PMO 125 mg/kg weekly, MTP-131 5 mg/kg daily
[5] = Run 2, Gel #7, PMO 125 mg/kg weekly, MTP-131 5 mg/kg daily
[6] = Run 2, Gel #8, PMO 125 mg/kg weekly, MTP-131 5 mg/kg daily
[7] = Run 3, Gel #9, PMO 125 mg/kg weekly, MTP-131 5 mg/kg daily
[8] = Run 3, Gel #10, PMO 125 mg/kg weekly, MTP-131 5 mg/kg daily

Row | Compound | inflammation in the tibialis anterior muscles [1] | % Dystrophin Average (dystrophin; [2]) [%] | % Dystrophin (dystrophin; [3]) | % Dystrophin (dystrophin; [4]) | % Dystrophin (dystrophin; [5]) | % Dystrophin (dystrophin; [6]) | % Dystrophin (dystrophin; [7]) | % Dystrophin (dystrophin; [8]) | % Dystrophin (dystrophin; summary by treatment group, PMO 125 mg/kg weekly, MTP-131 5 mg/kg daily)
1 | Cc1cc(O)cc(C)c1C[C@H](NC(=O)[C@H](N)CCCNC(=N)N)C(=O)N[C@@H](CCCCN)C(=O)N[C@@H](Cc1ccccc1)C(N)=O [MTP-131, H-D-Arg-2′6′-Dmt-Lys-Phe-NH2] (H-[dR][Dmt]KF-NH2) | reduced | 0.70 | 0.3% and 0.4% and 0.6% | 1.0% and 1.2% | 0.8% | 0.8% | 1.0% | 0% | 1.00% (3×) and 1.10% and 0.00% (2×) and 0.80% (4×) and 0.30% and 0.40% and 0.60% and 1.20%
2 | PMO: phosphorodiamidate morpholino oligomer mExon 23(+07-18), 5′-GGCCAAACCTCGGCTTACCTGAAAT-3′ (SEQ ID NO: 1), against exon/intron 23 boundary of mouse dystrophin gene; Gene Tools (all phosphorodiamidate morpholino (PMO)) [reference compound] | reduced | 3.66 | 6.0% and 4.2% | 4.7% and 2.7% | 1.2% and 1.7% and 7.4% | 3.2% and 1.4% | 1.4% and 3.9% | 3.1% and 2.9% and 7.2% | 
